The values that follow come from ChEMBL document CHEMBL5726287, “Biaryl acetamide compounds and methods of use thereof” (2017).

Bounds are passed on as bounds.

In this experiment the target is Mast/stem cell growth factor receptor Kit (Homo sapiens, UniProt P10721). Nature of the experiment: Competition Binding Assay: Competition binding assays used herein were developed, validated and performed as described in Fabian et al., Nature Biotechnology 2005, 23, 329-336. Kinases were produced as fusions to T7 phage (See, Fabian et al. or WO04/015142) or alternatively, the kinases were expressed in HEK-293 cells and subsequently tagged with DNA for PCR detection (See, WO08/005,310). […] The liganded beads were blocked with excess biotin and washed with blocking buffer (SeaBlock (Pierce), 1% BSA, 0.05% Tween 20, 1 mM DTT) to remove unbound ligand and to reduce non-specific binding. […] Test compounds were prepared as 100× stocks in DMSO and diluted into the aqueous environment. Kds were determined using an eleven point threefold serial dilutions. DMSO or control compounds were was added to control assays lacking a test compound. It is filed as cell-based.
Mast/stem cell growth factor receptor Kit, sequence (P10721 whole entry, the tested form may be a part): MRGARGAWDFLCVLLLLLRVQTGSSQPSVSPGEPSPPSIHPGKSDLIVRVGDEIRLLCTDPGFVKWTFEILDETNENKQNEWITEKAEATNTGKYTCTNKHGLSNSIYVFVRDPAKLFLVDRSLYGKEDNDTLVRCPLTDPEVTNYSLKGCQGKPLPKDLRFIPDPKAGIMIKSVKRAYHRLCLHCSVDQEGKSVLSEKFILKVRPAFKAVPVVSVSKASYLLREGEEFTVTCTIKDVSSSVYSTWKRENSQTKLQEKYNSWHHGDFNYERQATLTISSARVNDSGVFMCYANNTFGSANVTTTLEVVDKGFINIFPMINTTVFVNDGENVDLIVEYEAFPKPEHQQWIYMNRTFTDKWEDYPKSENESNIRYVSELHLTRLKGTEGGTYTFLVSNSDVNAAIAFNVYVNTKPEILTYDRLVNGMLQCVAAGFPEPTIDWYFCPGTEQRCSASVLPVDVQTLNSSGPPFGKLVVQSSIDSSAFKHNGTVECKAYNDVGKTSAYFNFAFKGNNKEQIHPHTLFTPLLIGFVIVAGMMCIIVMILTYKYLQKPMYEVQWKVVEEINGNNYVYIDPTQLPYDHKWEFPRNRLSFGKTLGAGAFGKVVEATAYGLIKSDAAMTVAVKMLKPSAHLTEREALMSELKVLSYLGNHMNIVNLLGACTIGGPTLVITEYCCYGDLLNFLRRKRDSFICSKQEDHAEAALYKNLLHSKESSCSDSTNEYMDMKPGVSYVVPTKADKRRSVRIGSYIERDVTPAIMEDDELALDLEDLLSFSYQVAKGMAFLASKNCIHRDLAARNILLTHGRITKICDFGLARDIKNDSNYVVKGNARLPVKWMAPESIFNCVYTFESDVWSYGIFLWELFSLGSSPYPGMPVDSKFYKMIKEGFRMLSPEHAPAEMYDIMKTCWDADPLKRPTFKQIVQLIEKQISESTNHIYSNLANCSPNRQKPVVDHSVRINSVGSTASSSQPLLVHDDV

Usually Kd stands for the constant that tells how readily two partners part at equilibrium. Higher therefore signals a looser complex. For `COc1cc2ncc(-c3ccc(CC(=O)Nc4cc(C5(C(F)(F)F)CC5)on4)cc3)nc2cc1OC`, the dissociation constant (Kd) is below 5 nM. As for `COc1cc2nc(-c3ccc(CC(=O)Nc4cc(C5(C)CC5)no4)c(F)c3)cnc2cc1OCCN1CCOCC1`, the figure is below 5 nM. The value for `COc1cc2nc(-c3ccc(CC(=O)Nc4cc(C(C)(C)C(F)(F)F)nn4C)c(F)c3)cnc2cc1OCCN1CCOCC1` was below 5 nM.
